Source: ChEMBL document CHEMBL3286318, “Design and synthesis of quinolinopropellane derivatives with selective δ opioid receptor agonism” (Bioorg Med Chem Lett, 2014)

Columns and labels:
Mu-type opioid receptor [1] = biological target: T1, Mu-type opioid receptor (Homo sapiens, UniProt P35372); test: Displacement of [3H]DAMGO from mu-opioid receptor (unknown origin)
[2] = biological target: T2, Delta-type opioid receptor (Homo sapiens, UniProt P41143); test: Displacement of [3H]DPDPE from delta-opioid receptor (unknown origin)
T2 sequence (P41143 whole entry): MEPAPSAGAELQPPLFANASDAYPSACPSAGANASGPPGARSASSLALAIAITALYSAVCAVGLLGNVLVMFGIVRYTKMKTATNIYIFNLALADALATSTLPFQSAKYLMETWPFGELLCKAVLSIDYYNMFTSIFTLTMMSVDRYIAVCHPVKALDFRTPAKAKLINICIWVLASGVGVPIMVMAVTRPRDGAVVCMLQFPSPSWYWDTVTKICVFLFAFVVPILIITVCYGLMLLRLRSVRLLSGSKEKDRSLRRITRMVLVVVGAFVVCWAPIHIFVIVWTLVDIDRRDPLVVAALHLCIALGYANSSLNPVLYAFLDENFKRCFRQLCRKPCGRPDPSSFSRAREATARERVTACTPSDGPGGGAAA

[3] = biological target: T3, Kappa-type opioid receptor (Homo sapiens, UniProt P41145); test: Displacement of [3H]U-69593 from kappa-opioid receptor (unknown origin)
T3 sequence (P41145 whole entry): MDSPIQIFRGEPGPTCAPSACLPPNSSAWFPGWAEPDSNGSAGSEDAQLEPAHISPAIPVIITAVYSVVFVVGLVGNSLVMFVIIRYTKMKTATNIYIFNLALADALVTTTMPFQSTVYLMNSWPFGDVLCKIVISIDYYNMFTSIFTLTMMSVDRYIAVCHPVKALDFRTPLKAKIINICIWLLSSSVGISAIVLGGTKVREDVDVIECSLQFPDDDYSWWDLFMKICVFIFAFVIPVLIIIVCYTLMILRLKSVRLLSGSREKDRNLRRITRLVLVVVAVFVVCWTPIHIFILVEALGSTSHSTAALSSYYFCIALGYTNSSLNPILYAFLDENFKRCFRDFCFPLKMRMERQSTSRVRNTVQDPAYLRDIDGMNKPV

Homo sapiens [4] = species on record: Homo sapiens; test: Selectivity ratio Ki for kappa-opioid receptor (unknown origin) to Ki for delta-opioid receptor (unknown origin)
Homo sapiens [5] = species on record: Homo sapiens; test: Selectivity ratio Ki for mu-opioid receptor (unknown origin) to Ki for delta-opioid receptor (unknown origin)
[6] = biological target: T3, Kappa-type opioid receptor; test: Agonist activity at kappa-opioid receptor (unknown origin) by [35S]GTPgammaS binding assay
Mu-type opioid receptor [7] = biological target: T1, Mu-type opioid receptor; test: Agonist activity at mu-opioid receptor (unknown origin) by [35S]GTPgammaS binding assay; assay type: functional
[8] = biological target: T2, Delta-type opioid receptor; test: Agonist activity at delta-opioid receptor (unknown origin) by [35S]GTPgammaS binding assay; assay type: functional

T1 sequence (P35372 whole entry): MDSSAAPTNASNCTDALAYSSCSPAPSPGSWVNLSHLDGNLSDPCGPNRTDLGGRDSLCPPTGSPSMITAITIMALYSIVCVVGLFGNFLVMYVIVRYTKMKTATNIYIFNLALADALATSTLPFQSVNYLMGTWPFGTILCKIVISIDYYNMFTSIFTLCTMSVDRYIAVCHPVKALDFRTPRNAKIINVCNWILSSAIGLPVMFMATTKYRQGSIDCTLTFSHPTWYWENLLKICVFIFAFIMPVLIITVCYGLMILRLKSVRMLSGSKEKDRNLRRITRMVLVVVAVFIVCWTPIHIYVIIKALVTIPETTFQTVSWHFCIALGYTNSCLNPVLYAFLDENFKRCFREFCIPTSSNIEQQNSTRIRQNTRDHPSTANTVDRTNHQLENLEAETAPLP

Structure (SMILES)	Ki (Mu-type opioid receptor [1]) [nM]	Ki [2] [nM]	Ki [3] [nM]	Ratio Ki (Homo sapiens [4])	Ratio Ki (Homo sapiens [5])	EC50 [6] [nM]	EC50 (Mu-type opioid receptor [7]) [nM]	Emax (Mu-type opioid receptor [7]) [%]	EC50 [8] [nM]	Emax [8] [%]
O=C1CC[C@@]23Cc4ccc(O)cc4[C@@]2(CCN(CC2CC2)C3)C1	58.2	448	17.4							
Oc1ccc2c(c1)[C@]13CCN(CC4(O)CC4)C[C@@]1(C2)Cc1cc2ccccc2nc1C3	415	1.1	879	801	378					
CN1CC[C@]23Cc4nc5ccccc5cc4C[C@]2(Cc2ccc(O)cc23)C1	3.06	1.88	195	104	1.63					
Oc1ccc2c(c1)[C@]13CCN(Cc4ccccc4)C[C@@]1(C2)Cc1cc2ccccc2nc1C3	76.3	31.6	594	18.8	2.42					
Oc1ccc2c(c1)[C@]13CCN(CC4CC4)C[C@@]1(C2)Cc1cc2ccccc2nc1C3	112	0.941	84.6	89.9	119	836	197	56	2.5	88
